From ChEMBL document CHEMBL1909046, “DrugMatrix in vitro pharmacology data”

Columns and labels:
[1] = DRUGMATRIX: GABAA, Chloride Channel, TBOB radioligand binding (ligand: [3H] TBOB); type: cell membranes, Rattus norvegicus, Wistar, Cerebral cortex, Membrane; settings: Not Active = under 50% inhibition at 10 µM
[2] = DRUGMATRIX: Interleukin IL-1 radioligand binding (ligand: [125I] interleukin 1beta); type: cell membranes, Membrane; settings: nih3t3; Not Active = under 50% inhibition at 10 µM
Cytochrome P450 3A4 = Cytochrome P450 3A4 (Homo sapiens, UniProt P08684); settings: bti-tn-5b1-4; note: in other assays of this panel Not Active means under 50% inhibition at 10 µM
Sequence of Cytochrome P450 3A4 (P08684 whole entry): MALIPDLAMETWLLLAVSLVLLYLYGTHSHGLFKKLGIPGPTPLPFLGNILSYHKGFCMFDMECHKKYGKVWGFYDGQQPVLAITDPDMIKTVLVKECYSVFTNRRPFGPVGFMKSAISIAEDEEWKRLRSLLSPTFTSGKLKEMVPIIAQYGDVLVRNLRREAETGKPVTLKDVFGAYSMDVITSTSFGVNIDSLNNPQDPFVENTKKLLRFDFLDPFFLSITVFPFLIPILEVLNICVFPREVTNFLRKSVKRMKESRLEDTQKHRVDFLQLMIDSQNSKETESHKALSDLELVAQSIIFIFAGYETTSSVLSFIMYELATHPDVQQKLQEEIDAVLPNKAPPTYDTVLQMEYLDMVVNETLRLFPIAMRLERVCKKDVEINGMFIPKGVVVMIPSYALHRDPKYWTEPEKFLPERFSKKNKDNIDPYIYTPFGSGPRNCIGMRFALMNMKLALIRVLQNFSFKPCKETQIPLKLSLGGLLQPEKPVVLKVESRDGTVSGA

[3] = DRUGMATRIX: Glutamate, NMDA, Agonism radioligand binding (ligand: [3H] CGP-39653); type: cell membranes, Rattus norvegicus, Wistar, Cerebral cortex, Membrane; settings: Not Active = under 50% inhibition at 10 µM
[4] = molecular target: Beta-2 adrenergic receptor (Homo sapiens, UniProt P07550); assay: DRUGMATRIX: Adrenergic beta2 radioligand binding (ligand: [3H] CGP-12177); type: cell membranes, CHO, Membrane; settings: cho; Not Active = under 50% inhibition at 10 µM
[5] = molecular target: T1, Muscarinic acetylcholine receptor M4 (Homo sapiens, UniProt P08173); type: cell membranes, CHO-K1, Membrane; settings: cho-k1; note: in other assays of this panel Not Active means under 50% inhibition at 10 µM
T1 sequence (P08173 whole entry): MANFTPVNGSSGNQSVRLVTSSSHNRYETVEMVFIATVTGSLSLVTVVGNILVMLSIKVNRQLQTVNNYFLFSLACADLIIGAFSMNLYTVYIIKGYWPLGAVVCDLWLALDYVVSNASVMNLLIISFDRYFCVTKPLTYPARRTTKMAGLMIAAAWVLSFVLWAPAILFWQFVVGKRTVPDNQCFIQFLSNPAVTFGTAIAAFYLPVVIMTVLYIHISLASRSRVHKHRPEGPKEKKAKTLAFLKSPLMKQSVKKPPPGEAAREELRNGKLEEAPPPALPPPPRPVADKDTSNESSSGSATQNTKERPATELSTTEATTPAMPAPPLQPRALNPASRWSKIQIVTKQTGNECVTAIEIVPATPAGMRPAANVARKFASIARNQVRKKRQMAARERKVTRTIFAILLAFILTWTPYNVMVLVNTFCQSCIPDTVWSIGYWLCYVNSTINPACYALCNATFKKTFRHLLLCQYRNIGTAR

Caspase-1 = molecular target: T2, Caspase-1 (Homo sapiens, UniProt P29466); design: species or system Escherichia coli;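 note: Caspase-1 enzyme inhibition assay with a peptide substrate; in other assays of this panel Not Active means under 50% inhibition at 10 µM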
T2 sequence (P29466 whole entry): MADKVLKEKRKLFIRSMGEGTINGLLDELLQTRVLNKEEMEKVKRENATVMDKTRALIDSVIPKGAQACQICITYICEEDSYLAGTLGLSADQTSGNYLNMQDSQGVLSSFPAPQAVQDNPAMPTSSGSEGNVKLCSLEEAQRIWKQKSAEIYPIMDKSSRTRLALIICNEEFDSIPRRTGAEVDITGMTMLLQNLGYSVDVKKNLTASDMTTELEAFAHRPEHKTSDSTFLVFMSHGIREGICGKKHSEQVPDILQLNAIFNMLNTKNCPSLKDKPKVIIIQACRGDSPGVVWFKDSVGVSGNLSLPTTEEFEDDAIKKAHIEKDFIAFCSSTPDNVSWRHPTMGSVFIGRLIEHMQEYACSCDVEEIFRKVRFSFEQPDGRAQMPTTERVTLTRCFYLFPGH

CO[C@H]1O[C@@H]2O[C@@]3(C)CC[C@H]4[C@H](C)CC[C@@H]([C@H]1C)[C@@]24OO3
Not Active: IC50 [1] | Ki [1] | IC50 [2] | Ki [2] | IC50 (Cytochrome P450 3A4) | Ki (Cytochrome P450 3A4) | IC50 [3] | Ki [3] | IC50 [4] | IC50 [5] | IC50 (Caspase-1)

O=c1[nH]c2ccccc2c2ccccc12
Not Active: IC50 [1] | Ki [1] | IC50 [2] | Ki [2] | IC50 (Cytochrome P450 3A4) | Ki (Cytochrome P450 3A4) | IC50 [3] | Ki [3] | IC50 [4] | IC50 [5] | IC50 (Caspase-1)

COc1ccc(C[C@H](N)C(=O)N[C@H]2[C@@H](O)[C@H](n3cnc4c(N(C)C)ncnc43)O[C@@H]2CO)cc1 [PUROMYCIN]
Not Active: IC50 [1] | Ki [1] | IC50 [2] | Ki [2] | IC50 (Cytochrome P450 3A4) | Ki (Cytochrome P450 3A4) | IC50 [3] | Ki [3] | IC50 [4] | IC50 [5] | IC50 (Caspase-1)

CHROMIC CHLORIDE
Not Active: IC50 [1] | Ki [1] | IC50 [2] | Ki [2] | IC50 (Cytochrome P450 3A4) | Ki (Cytochrome P450 3A4) | IC50 [3] | Ki [3] | IC50 [4] | Ki [4] | IC50 [5] | Ki [5] | IC50 (Caspase-1) | Ki (Caspase-1)

C[C@@H]1[C@H](O)[C@@H](C)/C=C/C=C/C=C/C=C/C=C/C=C/C=C/[C@H](O[C@@H]2O[C@H](C)[C@@H](O)[C@H](N)[C@@H]2O)C[C@@H]2O[C@](O)(C[C@@H](O)C[C@@H](O)[C@H](O)CC[C@@H](O)C[C@@H](O)CC(=O)O[C@H]1C)C[C@H](O)[C@H]2C(=O)O [AMPHOTERICIN B]
Not Active: IC50 [1] | Ki [1] | IC50 [2] | Ki [2] | IC50 (Cytochrome P450 3A4) | Ki (Cytochrome P450 3A4) | IC50 [3] | Ki [3] | IC50 [4] | IC50 [5] | IC50 (Caspase-1)

Cc1c(N)nc([C@H](CC(N)=O)NC[C@H](N)C(N)=O)nc1C(=O)N[C@H](C(=O)N[C@H](C)[C@@H](O)[C@H](C)C(=O)N[C@H](C(=O)NCCc1nc(-c2nc(C(=O)NCCC[S+](C)C)cs2)cs1)[C@@H](C)O)[C@@H](O[C@@H]1O[C@@H](CO)[C@@H](O)[C@H](O)[C@@H]1O[C@H]1O[C@H](CO)[C@@H](O)[C@H](OC(N)=O)[C@@H]1O)c1c[nH]cn1.[Br-] [BLEOMYCIN A2]
Not Active: IC50 [1] | Ki [1] | IC50 [2] | Ki [2] | IC50 (Cytochrome P450 3A4) | Ki (Cytochrome P450 3A4) | IC50 [3] | Ki [3] | IC50 [4] | IC50 [5] | IC50 (Caspase-1)

O=C(O)CNCP(=O)(O)O [GLYPHOSATE]
Not Active: IC50 [1] | Ki [1] | IC50 [2] | Ki [2] | IC50 [3] | Ki [3] | IC50 [4] | IC50 [5] | IC50 (Caspase-1)

Nc1nc(F)nc2c1ncn2[C@@H]1O[C@H](CO)[C@@H](O)[C@@H]1O [FLUDARABINE]
Not Active: IC50 [1] | Ki [1] | IC50 [2] | Ki [2] | IC50 (Cytochrome P450 3A4) | Ki (Cytochrome P450 3A4) | IC50 [3] | Ki [3] | IC50 [4] | IC50 [5] | IC50 (Caspase-1)

NCC(CC(=O)O)c1ccc(Cl)cc1 (stereo not drawn) [BACLOFEN]
Not Active: IC50 [1] | Ki [1] | IC50 [2] | Ki [2] | IC50 (Cytochrome P450 3A4) | Ki (Cytochrome P450 3A4) | IC50 [3] | Ki [3] | IC50 [4] | IC50 [5] | IC50 (Caspase-1)

O=C(Nc1ccc(Cl)c(Cl)c1)c1cc(Cl)cc(Cl)c1O [3,3',4',5-TETRACHLOROSALICYLANILIDE]
Not Active: IC50 [1] | Ki [1] | IC50 [2] | Ki [2] | IC50 (Cytochrome P450 3A4) | Ki (Cytochrome P450 3A4) | IC50 [3] | Ki [3] | IC50 [4] | IC50 [5] | IC50 (Caspase-1)

Oc1ccccc1 [PHENOL]
Not Active: IC50 [1] | Ki [1] | IC50 [2] | Ki [2] | IC50 (Cytochrome P450 3A4) | Ki (Cytochrome P450 3A4) | IC50 [3] | Ki [3] | IC50 [4] | IC50 [5] | IC50 (Caspase-1)

CC(C)NCC(O)COc1ccc(CC(N)=O)cc1 (stereo not drawn) [ATENOLOL]
Not Active: IC50 [1] | Ki [1] | IC50 [2] | Ki [2] | IC50 [3] | Ki [3] | IC50 [5] | IC50 (Caspase-1)

CNC[C@H](O)c1ccc(O)c(O)c1 [EPINEPHRINE]
Not Active: IC50 [1] | Ki [1] | IC50 [2] | Ki [2] | IC50 (Cytochrome P450 3A4) | Ki (Cytochrome P450 3A4) | IC50 [5] | IC50 (Caspase-1)

CN(Cc1cc(Br)cc(Br)c1N)C1CCCCC1 [BROMHEXINE]
Not Active: IC50 [1] | Ki [1] | IC50 [2] | Ki [2] | IC50 (Cytochrome P450 3A4) | Ki (Cytochrome P450 3A4) | IC50 [3] | Ki [3] | IC50 [4] | IC50 [5] | IC50 (Caspase-1)

CC(C)Cc1ccc([C@H](C)C(=O)O)cc1 [DEXIBUPROFEN]
Not Active: IC50 [1] | Ki [1] | IC50 [2] | Ki [2] | IC50 (Cytochrome P450 3A4) | Ki (Cytochrome P450 3A4) | IC50 [3] | Ki [3] | IC50 [4] | IC50 [5] | IC50 (Caspase-1)

CC(C)(C#N)c1cc(Cn2cncn2)cc(C(C)(C)C#N)c1 [ANASTROZOLE]
Not Active: IC50 [1] | Ki [1] | IC50 [2] | Ki [2] | IC50 [3] | Ki [3] | IC50 [4] | IC50 [5] | IC50 (Caspase-1)

COc1ccccc1OCCNCC(O)COc1cccc2[nH]c3ccccc3c12 (stereo not drawn) [CARVEDILOL]
Not Active: IC50 [1] | Ki [1] | IC50 [2] | Ki [2] | IC50 (Cytochrome P450 3A4) | Ki (Cytochrome P450 3A4) | IC50 [3] | Ki [3] | IC50 [5] | IC50 (Caspase-1)

NS(=O)(=O)c1cc(C(=O)O)c(NCc2ccco2)cc1Cl [FUROSEMIDE]
Not Active: IC50 [1] | Ki [1] | IC50 [2] | Ki [2] | IC50 [3] | Ki [3] | IC50 [4] | IC50 [5] | IC50 (Caspase-1)

COc1ccc(Cl)cc1C(=O)NCCc1ccc(S(=O)(=O)NC(=O)NC2CCCCC2)cc1 [GLYBURIDE]
Not Active: IC50 [1] | Ki [1] | IC50 [2] | Ki [2] | IC50 [3] | Ki [3] | IC50 [4] | IC50 [5] | IC50 (Caspase-1)

CCN(CCO)CCCC(C)Nc1ccnc2cc(Cl)ccc12 (stereo not drawn) [HYDROXYCHLOROQUINE]
Not Active: IC50 [1] | Ki [1] | IC50 [2] | Ki [2] | IC50 [3] | Ki [3] | IC50 [4] | IC50 [5] | IC50 (Caspase-1)

COc1cc([C@@H]2c3cc4c(cc3[C@H](O)[C@H]3COC(=O)[C@H]23)OCO4)cc(OC)c1OC [PODOFILOX]
Not Active: IC50 [1] | Ki [1] | IC50 [2] | Ki [2] | IC50 [3] | Ki [3] | IC50 [4] | IC50 [5] | IC50 (Caspase-1)

C[C@H]1C[C@H]2[C@@H]3CCC4=CC(=O)C=C[C@]4(C)[C@@]3(F)[C@@H](O)C[C@]2(C)[C@@]1(O)C(=O)CO [BETAMETHASONE]
Not Active: IC50 [1] | Ki [1] | IC50 [2] | Ki [2] | IC50 [3] | Ki [3] | IC50 [4] | IC50 [5] | IC50 (Caspase-1)

C#C[C@]1(O)CC[C@H]2[C@@H]3CCC4=CC(=O)CC[C@@H]4[C@H]3CC[C@@]21C [NORETHINDRONE]
Not Active: IC50 [1] | Ki [1] | IC50 [2] | Ki [2] | IC50 [3] | Ki [3] | IC50 [4] | IC50 [5] | IC50 (Caspase-1)
